Experiments:
COLO205 = assay: Inhibition of cell proliferation, COLO205; assay type: cell-based; details: Homo sapiens, COLO 205; Colon; 72 h; methylene blue or CellTiter-Glo
Procedure: (§1) II. Inhibition of Cell Proliferation by PLK1 Inhibitors.
(§2) Exponentially growing cell lines of different tumor origins, cultured in appropriate media containing 10% fetal bovine serum at 37° C. in a 5% CO2 incubator were plated in 96 or 384-well plates. Twenty four hours post-plating, cells were treated with different concentrations of test compounds ranging from 20 μM to 0.04 nM. Several wells were left untreated as a control. Seventy two hours post-treatment, cell numbers were determined using different techniques; 100 μl per well of methylene blue (Sigma M9140) (0.5% in 50:50 Ethanol:water), or 10-100 μl per well of CellTiter-Glo (Promega #G7573), depending on well size. For methylene blue staining, stain was incubated at room temperature for 30 minutes before plates were rinsed and dye solubilized in 1% N-lauroyl sarcosine, sodium salt, (Sigma L5125, in PBS). Plates were read on a microplate reader, measuring the OD at 620 nm. For CellTiter-Glo, plates were incubated at room temperature for 15 minutes and the chemiluminescent signal was read on the Victor V or Envison 2100 reader.
(§3) Percent inhibition of cell growth was expressed as percent proliferation relative to 100% proliferation (control). Concentration of test compound that inhibited 50% of cell growth (IC50) was determined by 4 parameter fit of data using XLfit, (value of no cell control was substracted from all samples for background). The data are shown in Table 1 and Table 2 below and represent a compilation of several different experiments each performed using the general parameters outlined above, although minor variations may have been employed in some instances, in Table 1 and Table 2, +=IC50>1 μM; ++=IC50 0.5-1 μM: +++=IC50<0.5 μM.

P388 = assay: Inhibition of cell proliferation, P388; assay type: cell-based; details: Mouse leukemia, 72 h, methylene blue or CellTiter-Glo
Procedure: as §1, §2, §3

SKOV-3 = assay: Inhibition of cell proliferation, SKOV-3; assay type: cell-based; details: Homo sapiens, SK-OV-3; Ovarian; 72 h; methylene blue or CellTiter-Glo
Procedure: as §1, §2, §3

HT29 = assay: Inhibition of cell proliferation, HT29; assay type: cell-based; details: Homo sapiens, HT-29; Colon; 72 h; methylene blue or CellTiter-Glo
Procedure: as §1, §2, §3

HCT116 = assay: Inhibition of cell proliferation, HCT116; assay type: cell-based; details: Homo sapiens, HCT-116; 72 h treatment; methylene blue or CellTiter-Glo
MX-1 = assay: Inhibition of cell proliferation, MX-1; assay type: cell-based; details: Homo sapiens, MX1; Breast; 72 h; methylene blue or CellTiter-Glo
Procedure: as §1, §2, §3

A549-L = assay: Inhibition of cell proliferation, A549-L; assay type: cell-based; details: lung; 72 h; methylene blue or CellTiter-Glo
Procedure: as §1, §2, §3

PLK1 kinase domain = target: T1, PLK1 kinase domain (Homo sapiens, UniProt P53350); assay: Assay for inhibition of PLK1 (33P SPA kinase assay); assay type: biochemical; details: 2 nM PLK1 kinase domain, 1 μM ATP, 1 μM substrate peptide; read-out: PLK1 pIC50 (converted)
T1 construct: His-tagged PLK kinase domain (amino acids 21-346 preceded by MKKGHHHHHHD); made in house; host or cells: baculovirus-infected T. ni insect cells
Procedure: I. Assay for Inhibition of PLK1
A. Preparation of 6× N-Terminal His-Tagged PLK Kinase Domain
6× N-terminal His-tagged PLK kinase domain (amino acids 21-346 preceded by MKKGHHHHHHD) SEQ ID: No. 1. was prepared from baculovirus infected T. ni cells under polyhedrin promoter control. All procedures were performed at 4° C. Cells were lysed in 50 mM HEPES, 200 mM NaCl, 50 mM imidazole, 5% glycerol; pH 7.5. The homogenate was centrifuged at 14K rpm in a SLA-1500 rotor for 1 br and the supernatant filtered through a 1.2 micron filter. The supernatant was loaded onto a Nickel chelating Sepharose (Amersham Pharmacia) column and washed with lysis buffer. Protein was eluted using 20%, 30% and 100% buffer B steps where buffer B was 50 mM HEPES, 200 mM NaCl, 300 mM imidazole, 5% glycerol; pH 7.5. Fractions containing PLK were determined by SOS-PAGE. Fractions containing PLK were diluted five-fold with 50 mM HEPES, 1 mM DTT, 5% glycerol; pH 7.5, then loaded on an SP Sepharose (Amersham Pharmacia) column. After washing the column with 50 mM HEPES, 1 mM DTT, 5% glycerol; pH 7.5, PLK was step eluted with 50 mM HEPES, 1 mM DTT, 500 mM NaCl; 5% glycerol; pH 7.5. PLK was concentrated using a 10 kDa molecular weight cutoff membrane and then loaded onto a Superdex 200 gel filtration (Amersham Pharmacia) column equilibrated in 25 mM HEPES, 1 mM DTT, 500 mM NaCl, 5% glycerol; pH 7.5. Fractions containing PLK were determined by SDS-PAGE. PLK was pooled, aliquoted and stored at −80° C. Samples were quality controlled using mass spectrometry, N-terminal sequencing and amino acid analysis.
B. Enzyme Activity ± Inhibitors was Determined as Follows:
All measurements were obtained under conditions where signal production increased linearly with time and enzyme. Test compounds were added to white 384-well assay plates (0.1 μL for 10 μL and some 20 μL assays, 1 μL for some 20 μL assays) at variable known concentrations in 100% DMSO. DMSO (1-5% final, as appropriate) and EDTA (65 mM in reaction) as controls. Reaction Mix was prepared as follows at 22° C.: • 25 mM HEPES, pH 7.2 • 15 mM MgCl2 • 1 μM ATP • 0.05 μCi/well ^33P-γ ATP (10 Ci/mMol) • 1 μM substrate peptide (Biotin-Ahx-SFNDTLDFD) SEQ ID:No. 2. • 0.15 mg/mL BSA • 1 mM DTT • 2 nM PLK1 kinase domain (added last)
Reaction Mix (10 or 20 μL) was quickly added to each well immediately following addition of enzyme via automated liquid handlers and incubated 1-1.5 h at 22° C. […] Plates were sealed with dear plastic seals, spun at 500×g for 1 min or settled overnight, and counted in Packard TopCount for 30 seconds/well (regular SPA) or imaged using a Viewlux imager (LeadSeeker SPA). […]

T1 sequence (P53350 21-346): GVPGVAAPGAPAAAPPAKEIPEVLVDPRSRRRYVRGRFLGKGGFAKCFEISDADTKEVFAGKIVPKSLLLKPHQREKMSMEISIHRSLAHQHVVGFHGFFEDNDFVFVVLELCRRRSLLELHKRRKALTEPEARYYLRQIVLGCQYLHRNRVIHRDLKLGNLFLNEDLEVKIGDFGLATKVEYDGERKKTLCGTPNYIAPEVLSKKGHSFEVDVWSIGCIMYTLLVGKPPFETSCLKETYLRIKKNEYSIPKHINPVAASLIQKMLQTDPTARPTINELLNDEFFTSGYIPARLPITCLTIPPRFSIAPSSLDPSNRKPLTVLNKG

Row | IC50 (COLO205) [nM] | IC50 (P388) [nM] | IC50 (SKOV-3) [nM] | IC50 (HT29) [nM] | IC50 (HCT116) [nM] | IC50 (A549-L) [nM] | IC50 (PLK1 kinase domain) [nM] | SMILES | IC50 (MX-1) [nM]
1 | < 500 | < 500 | < 500 | < 500 | < 500 |  |  | C[C@@H](Oc1cc(-n2cnc3cc(Cl)ccc32)sc1C(N)=O)c1cccc(OC2CCN(C)CC2)c1Cl [Example 3, 5-(5-Chloro-1H-benzimidazol-1-yl)-3-((1R)-1-{2-chloro-3-[(1-methylpiperidin-4-yl)oxy]phenyl}ethoxy)thiophene-2-carboxamide] | < 500
2 | < 500 | < 500 | < 500 | < 500 | < 500 | < 500 |  | C[C@@H](Oc1cc(-n2cnc3cc(-c4cnn(C)c4)ccc32)sc1C(N)=O)c1cccc(OCC2CCN(C)CC2)c1Cl [Example 45, 3-{[(1R)-1-(2-Chloro-3-{[(1-methyl-4-piperidinyl)methyl]oxy}phenyl)ethyl]oxy}-5-[5-(1-methyl-1H-pyrazol-4-yl)-1H-benzimidazol-1-yl]-2-thiophenecarboxamide] | < 500
3 | < 500 | < 500 | < 500 | < 500 | < 500 | < 500 |  | C[C@@H](Oc1cc(-n2cnc3cc(-c4cnn(C)c4)ccc32)sc1C(N)=O)c1cccc(OC2CCNCC2)c1Cl [Example 47, 3-({(1R)-1-[2-Chloro-3-(4-piperidinyloxy)phenyl]ethyl}oxy)-5-[5-(1-methyl-1H-pyrazol-4-yl)-1H-benzimidazol-1-yl]-2-thiophenecarboxamide] | < 500
4 | < 500 |  | < 500 | < 500 | < 500 |  |  | Cc1cc(-c2ccc3c(c2)ncn3-c2cc(O[C@H](C)c3cccc(OC4CCNCC4)c3Cl)c(C(N)=O)s2)ccn1 [Example 49, 3-({(1R)-1-[2-Chloro-3-(4-piperidinyloxy)phenyl]ethyl}oxy)-5-[5-(2-methyl-4-pyridinyl)-1H-benzimidazol-1-yl]-2-thiophenecarboxamide] | < 500
5 |  |  |  |  | > 1000 |  | < 100 | C[C@@H](Oc1cc(-n2cnc3ccc(CS(C)(=O)=O)cc32)sc1C(N)=O)c1cccc(OC[C@H]2CCCN2C)c1Cl [Example 58, 3-({(1R)-1-[2-chloro-3-({[(2R)-1-methyl-2-pyrrolidinyl]methyl}oxy)phenyl]ethyl}oxy)-5-{6-[(methylsulfonyl)methyl]-1H-benzimidazol-1-yl}-2-thiophenecarboxamide] | 
6 |  |  |  |  | > 1000 |  | < 100 | C[C@@H](Oc1cc(-n2cnc3cc(S(C)(=O)=O)ccc32)sc1C(N)=O)c1cccc(OC2CCNCC2)c1Cl [Example 59, 3-({(1R)-1-[2-chloro-3-(4-piperidinyloxy)phenyl]ethyl}oxy)-5-[5-(methylsulfonyl)-1H-benzimidazol-1-yl]-2-thiophenecarboxamide] | 
7 |  |  |  |  | > 1000 |  | < 100 | C[C@@H](Oc1cc(-n2cnc3ccc(S(C)(=O)=O)cc32)sc1C(N)=O)c1cccc(OC2CCNCC2)c1Cl [Example 60, 3-({(1R)-1-[2-chloro-3-(4-piperidinyloxy)phenyl]ethyl}oxy)-5-[6-(methylsulfonyl)-1H-benzimidazol-1-yl]-2-thiophenecarboxamide] | 
8 | < 500 | < 500 | < 500 | < 500 | < 500 |  |  | C[C@@H](Oc1cc(-n2cnc3cc(F)c(F)cc32)sc1C(N)=O)c1cccc(OC2CCN(C)CC2)c1Cl [Example 66, 3-[((1R)-1-(2-chloro-3-[(1-methyl-4-piperidinyl)oxy]phenyl}ethyl)-oxy]-5-(5,6-difluoro-1H-benzimidazol-1-yl)-2-thiophenecarboxamide] | < 500
9 |  |  |  |  | > 1000 |  |  | CC(Oc1cc(-n2cnc3cc(-c4cnn(C)c4)ccc32)sc1C(N)=O)c1ccnc(OC2CCN(C)CC2)c1 (stereo not drawn) [Example 80] | 
10 |  |  |  |  | > 1000 |  |  | Cn1cc(-c2ccc3c(c2)ncn3-c2cc(OCc3cccc(OC4CCNCC4)c3)c(C(N)=O)s2)cn1 [Example 83, 5-[5-(1-Methyl-1H-pyrazol-4-yl)-1H-benzimidazol-1-yl]-3-({[3-(4-piperidinyloxy)phenyl]methyl}oxy)-2-thiophenecarboxamide] | 
11 |  |  |  |  | 500 to 1000 |  |  | CN1CCC(Oc2cccc(COc3cc(-n4cnc5cc(-c6cnn(C)c6)ccc54)sc3C(N)=O)c2)CC1 [Example 84, 3-[({3-[(1Methyl-4piperidinyl)oxy]phenyl}methyl)oxy]-5-[5-(1-methyl-1H-pyrazol-4-yl)-1H-benzimidazol-1-yl]-2-thiophenecarboxamide] | 
12 |  |  |  |  | > 1000 |  |  | CC(Oc1cc(-n2cnc3cc(-c4cnn(C)c4)ccc32)sc1C(N)=O)c1cc(OC2CCNCC2)ccn1 (stereo not drawn) [Example 85, 5-[5-(1-Methyl-1H-pyrazol-4-yl)-1H-benzimidazol-1-yl]-3-({1-[4-(4-piperidinyloxy)-2-pyridinyl]ethyl}oxy)-2-thiophenecarboxamide] | 
13 |  |  |  |  | > 1000 |  | < 100 | CC(Oc1cc(-n2cnc3cc(-c4cnn(C)c4)ccc32)sc1C(N)=O)c1cc(OC2CCN(C)CC2)ccn1 (stereo not drawn) [Example 86, 3-[(1-{4-[(1-Methyl-4-piperidinyl)oxy]-2-pyridinyl}ethyl)oxy]-5-[5-(1-methyl-1H-pyrazol-4-yl)-1H-benzimidazol-1-yl]-2-thiophenecarboxamide] | 
14 |  |  |  |  | < 500 |  |  | Cc1nnc(-c2ccc3c(c2)ncn3-c2cc(O[C@H](C)c3cccc(OC4CCNCC4)c3Cl)c(C(N)=O)s2)o1 [Example 87, 3-({(1R)-1-(2-Chloro-3-(4-piperidinyloxy)phenyl]ethyl}oxy)-5-[5-(5-methyl-1,3,4-oxadiazol-2-yl)-1H-benzimidazol-1-yl]-2-thiophenecarboxamide] | 
15 |  |  |  |  | < 500 |  |  | Cc1nnc(-c2ccc3c(c2)ncn3-c2cc(O[C@H](C)c3cccc(OC4CCN(C)CC4)c3Cl)c(C(N)=O)s2)o1 [Example 88] | 

Reference: patent US20100075960A1 (priority 2006, published 2010)
